This note sets out measurements from PMC2775811 (The Journal of neuroscience : the official journal of the …, 2009).

As a reminder, the IC50 is the concentration needed to halve the response being measured. As usually defined, the Kd is the free concentration of one partner at which half of the binding sites on the other are occupied at equilibrium, for simple one-to-one binding. A high value points to lower affinity.

The target of one assay is Hsp70 (Homo sapiens, UniProt P0DMV8). In words: malachite green ATPase assay, 8-point dose dependence. Format: biochemical.
The target in another assay is Hsc70 (Homo sapiens, UniProt P11142). The assay can be described thus: […]-1H HSQC-TROSY NMR titration, […]-labelled apo-Hsc70. Type of assay: binding.

In the case of `CNc1ccc2nc3ccc(N)cc3[s+]c2c1` [AC, azure C], on Hsp70, the IC50 was 11 µM.

At Hsp70, `CN(C)c1ccc2nc3ccc(=[N+](C)C)cc-3sc2c1` [MB, methylene blue] registered an IC50 of 83 µM. Moreover, the Kd at Hsc70 was about 1 µM.

Regarding `O=c1c(O)c(-c2cc(O)c(O)c(O)c2)oc2cc(O)cc(O)c12` [MY, myricetin], inhibition at Hsp70 was half-maximal at 12 µM (IC50).
